# Paper PMC7014678 (International Journal of Molecular Sciences, 2020)
# Like-named read-outs stand apart in the source and are kept apart here.
# Experiments:
# VchCA-α [1] = biological target: T1, VchCA-α (Vibrio cholerae, UniProt Q9KMP6); assay: biochemical
# T1 construct: gene VC_A0274
# BpsCA-β [2] = biological target: T2, BpsCA-β (Burkholderia pseudomallei, UniProt Q63Y17); assay: biochemical
# T2 construct: gene BPSL0372
# VchCA-β [3] = biological target: T3, VchCA-β (Vibrio cholerae, UniProt A0A086SLX8); assay: biochemical
# T3 construct: gene can
# BpsCA-γ = biological target: T4, BpsCA-γ; type: biochemical, Burkholderia pseudomallei
# T4 construct: gene BpsCA-gamma
# Rv3273-β [4] = biological target: T5, Rv3273-β (Mycobacterium tuberculosis, UniProt P96878); assay: biochemical
# StCA2-β = biological target: T6, StCA2-β; assay: stopped-flow CO2 hydration assay; type: biochemical, Salmonella enterica subsp. enterica serovar Typhimurium; settings: CO2 1.7-17 mM; pH 8.3 TRIS; 20 mM Na2SO4; 15 min preincubation, room temperature
# T6 construct: recombinant, obtained in-house; construct not described
# Rv3273-β [5] = biological target: T5, Rv3273-β; assay: biochemical; remark: listed apart in the source
# VchCA-α [6] = biological target: T1, VchCA-α; assay: biochemical; remark: listed apart in the source
# VchCA-β [7] = biological target: T3, VchCA-β; assay: biochemical; remark: listed apart in the source
# BpsCA-β [8] = biological target: T2, BpsCA-β; assay: biochemical; remark: listed apart in the source
# T1 sequence (Q9KMP6 21-239 limits assumed): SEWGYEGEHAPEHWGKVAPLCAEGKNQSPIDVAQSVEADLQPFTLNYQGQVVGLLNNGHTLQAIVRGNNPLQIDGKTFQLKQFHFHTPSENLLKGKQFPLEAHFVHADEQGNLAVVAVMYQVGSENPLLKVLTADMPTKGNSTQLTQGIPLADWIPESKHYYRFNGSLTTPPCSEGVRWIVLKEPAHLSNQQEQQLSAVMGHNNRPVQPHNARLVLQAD
# T2 sequence (Q63Y17 1-256): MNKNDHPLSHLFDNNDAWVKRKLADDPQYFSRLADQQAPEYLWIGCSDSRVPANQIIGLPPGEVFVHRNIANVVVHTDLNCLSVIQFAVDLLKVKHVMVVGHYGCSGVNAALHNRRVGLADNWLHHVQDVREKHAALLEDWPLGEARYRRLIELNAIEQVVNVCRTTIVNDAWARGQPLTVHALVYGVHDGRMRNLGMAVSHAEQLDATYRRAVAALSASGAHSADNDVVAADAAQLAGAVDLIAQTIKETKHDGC
# T3 sequence (A0A086SLX8 1-222): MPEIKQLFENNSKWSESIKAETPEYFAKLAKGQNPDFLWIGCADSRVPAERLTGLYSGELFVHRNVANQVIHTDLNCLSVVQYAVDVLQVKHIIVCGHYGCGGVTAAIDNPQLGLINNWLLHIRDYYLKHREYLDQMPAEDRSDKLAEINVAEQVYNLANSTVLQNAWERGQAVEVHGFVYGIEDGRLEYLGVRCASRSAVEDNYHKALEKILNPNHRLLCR
# T5 sequence (P96878 540-764 limits assumed): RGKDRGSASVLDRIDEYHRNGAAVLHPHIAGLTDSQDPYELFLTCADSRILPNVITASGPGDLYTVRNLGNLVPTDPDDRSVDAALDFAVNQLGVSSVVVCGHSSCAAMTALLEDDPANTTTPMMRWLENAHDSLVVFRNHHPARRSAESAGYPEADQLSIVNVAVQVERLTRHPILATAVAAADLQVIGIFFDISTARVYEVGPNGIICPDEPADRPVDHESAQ
Compound,Ki (VchCA-α [1]),Ki (BpsCA-β [2]),Ki (VchCA-β [3]),Ki (StCA2-β),Ki (Rv3273-β [5]),Ki (VchCA-α [6]),Ki (VchCA-β [7]),further results
CC(O)CSCC(=O)Nc1ccc(S(N)(=O)=O)cc1 (stereo not drawn) [3e],44.7 nM,> 10 µM,6650 nM,,,,,Ki (BpsCA-γ): 322 nM; Ki (Rv3273-β [4]): 214 nM
NS(=O)(=O)c1ccc(C[Se]c2ccc(NC(=O)CSc3ccc(Br)cc3)cc2)cc1 [5b],45.8 nM,> 10 µM,581 nM,8.2 nM,> 10 µM,,,
C=C(C)[C@H]1CCC(C)(O)C([Se]CC(=O)NCCc2ccc(S(N)(=O)=O)cc2)C1 (stereo partly drawn) [8e],,> 10 µM,309 nM,8.9 nM,> 10 µM,6.1 nM,,
Cc1ccc(S(=O)(=O)N[C@H](C[Se]CC(=O)NCCc2ccc(S(N)(=O)=O)cc2)C(C)C)cc1 [8d],62.3 nM,> 10 µM,828 nM,,> 10 µM,,,
COc1ccc([Se]CC(=O)NCCc2ccc(S(N)(=O)=O)cc2)cc1 [8c],,> 10 µM,,,> 10 µM,3.2 nM,85 nM,
Cc1ccccc1[Se]CC(=O)Nc1ccc(S(N)(=O)=O)cc1 [7c],,,,,,,,"Ki (VchCA-α [1]; read-out: VchCA-α, inhibitor): 41.7 nM; Ki (BpsCA-β [2]; read-out: BpsCA-β, inhibitor): > 10 µM; Ki (VchCA-β [3]; read-out: VchCA-β, inhibitor): 6210 nM; Ki (Rv3273-β [5]; read-out: Rv3273-β, inhibitor): > 10 µM"
Cc1ccc([Se]CC(=O)Nc2ccc(S(N)(=O)=O)cc2)cc1 [7b],7.7 nM,> 10 µM,762 nM,,0.283 µM,,,
NS(=O)(=O)c1ccc(CCNC(=O)C[Se]c2ccccc2)cc1 [8a],44.4 nM,> 10 µM,6590 nM,,1.5 µM,,,
NS(=O)(=O)c1ccc(NC(=O)C[Se]c2ccccc2)cc1 [7a],,,,,,2.2 nM,96.3 nM,"Ki (BpsCA-γ; CO2 1.7-17 mM, buffer pH for γ-CA not stated, 20 mM Na2SO4, 15 min preincubation, room temperature): 304 nM; Ki (Rv3273-β [4]): 203 nM; Ki (BpsCA-β [8]): 4.09 µM"
COc1ccc([Se]CC(=O)Nc2ccc([Se]Cc3ccc(S(N)(=O)=O)cc3)cc2)cc1 [9d],8.9 nM,> 10 µM,,7.5 nM,> 10 µM,,82.9 nM,
